Where a SMILES comes first, the peptide text is derived from it. Bridges are numbered along the chain shown (N, C = ends). [ ]: non-standard residue; d: D form. The star is where a group is joined. Phe(3-CF3) = N[C@@H](Cc1cccc(C(F)(F)F)c1)C(=O)O; Bip = N[C@@H](Cc1ccc(-c2ccccc2)cc1)C(=O)O; Phe(3-OMe) = COc1cccc(C[C@H](N)C(=O)O)c1; 4Pal = N[C@@H](Cc1ccncc1)C(=O)O; Cha = N[C@@H](CC1CCCCC1)C(=O)O; Carboxymethyl = O=C(O)C*; Orn = NCCC[C@H](N)C(=O)O; Dab = NCC[C@H](N)C(=O)O; Dap = NC[C@H](N)C(=O)O

As usually defined, the IC50 is the point on the concentration scale where inhibition reaches its midpoint.

T1 sequence (Q15116 25-288): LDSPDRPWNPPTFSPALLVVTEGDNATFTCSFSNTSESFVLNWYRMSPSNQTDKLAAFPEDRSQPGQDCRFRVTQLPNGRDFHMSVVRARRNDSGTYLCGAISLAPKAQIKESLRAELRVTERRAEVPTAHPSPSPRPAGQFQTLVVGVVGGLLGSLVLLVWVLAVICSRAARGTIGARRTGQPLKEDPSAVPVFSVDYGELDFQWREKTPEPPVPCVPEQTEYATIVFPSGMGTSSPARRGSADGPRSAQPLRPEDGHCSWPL

This assay has as its target T1, human PD-1 / PD-L1-Ig binding on Jurkat cell line over-expressing human PD-1 (Jurkat-PD-1) (Homo sapiens, UniProt Q15116).
T1 construct: expressed in transfected cells; host or cells: Jurkat
As to the kind of experiment: Jurkat-PD-1 Cell Binding High-Content Screening Assay (CBA). Format: cell-based. The conditions noted are these: Jurkat-PD-1 cells, PE-labeled PD-L1-Ig 20 nM final; read-out: Jurkat HPD1_PDL1 IC50. A digest of the protocol: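 Jurkat cells over-expressing human PD-1, in DMEM/10% FCS, pre-incubated with compound 2 h at 37° C. PE-labeled human PD-L1-Ig (20 nM final) added for 1 h; cells fixed in paraformaldehyde with Hoechst 33342 nuclear stain, washed, and bound fluorescence quantified by high-content imaging.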
`CC(C)C[C@H]1NC(=O)[C@H](CN)NC(=O)[C@H](C(C)C)NC(=O)[C@H](Cc2ccc(-c3ccccc3)cc2)NC(=O)[C@H](C(C)C)NC(=O)[C@H](Cc2c[nH]c3ccccc23)NC(=O)[C@H](CC(=O)O)NC(=O)[C@H](Cc2ccncc2)NC(=O)[C@H](Cc2ccc(OCC(=O)O)cc2)NC(=O)CSC[C@@H](C(=O)NCC(N)=O)NC(=O)[C@H](CO)NC(=O)[C@H](C(C)C)NC(=O)[C@H](CC2CCCCC2)NC(=O)[C@H](CC(N)=O)NC1=O` [Compound 1456] ({CH2CO}-Y(Carboxymethyl)[4Pal]DWV[Bip]V[Dap][dL]N[Cha]VSCG-NH2; thioether N-14): the IC50 was found to be 6.1 nM.

As to `CC(C)C[C@H]1NC(=O)[C@H](CCCN)NC(=O)[C@H](CCC(=O)O)NC(=O)[C@H](Cc2ccc(-c3ccccc3)cc2)NC(=O)[C@H](C(C)C)NC(=O)[C@H](Cc2cccc(C(F)(F)F)c2)NC(=O)[C@H](CC(=O)O)NC(=O)[C@H](Cc2ccc(O)cc2)NC(=O)[C@H](CC(N)=O)NC(=O)CSC[C@@H](C(=O)N[C@@H](C)C(N)=O)NC(=O)[C@H]([C@@H](C)O)NC(=O)[C@H](C(C)C)NC(=O)[C@H](CC2CCCCC2)NC(=O)[C@H](CCN)NC1=O` [Compound 1457] ({CH2CO}-NYD[Phe(3-CF3)]V[Bip]E[Orn][dL][Dab][Cha]VTCA-NH2; thioether N-14), the IC50 turned out to be 19.8 nM.

For the molecule `CC(C)C[C@H]1NC(=O)[C@H](CCCN)NC(=O)[C@H](CCC(=O)O)NC(=O)[C@H](Cc2ccc(-c3ccccc3)cc2)NC(=O)[C@H](C(C)C)NC(=O)[C@H](Cc2cccc(C(F)(F)F)c2)NC(=O)[C@H](CC(=O)O)NC(=O)[C@H](Cc2ccc(OCC(=O)O)cc2)NC(=O)[C@H](CN)NC(=O)CSC[C@@H](C(=O)N[C@@H](C)C(N)=O)NC(=O)[C@H]([C@@H](C)O)NC(=O)[C@H](C(C)C)NC(=O)[C@H](CC2CCCCC2)NC(=O)[C@H](CCN)NC1=O` [Compound 1458], the IC50 came to 17.9 nM.

For `CC(C)C[C@H]1NC(=O)[C@H](CCCN)NC(=O)[C@H](CCC(=O)O)NC(=O)[C@H](Cc2ccc(-c3ccccc3)cc2)NC(=O)[C@H](C(C)C)NC(=O)[C@H](Cc2cccc(C(F)(F)F)c2)NC(=O)[C@H](CC(=O)O)NC(=O)[C@H](Cc2ccncc2)NC(=O)[C@H](CN)NC(=O)CSC[C@@H](C(=O)N[C@@H](C)C(N)=O)NC(=O)[C@H]([C@@H](C)O)NC(=O)[C@H](C(C)C)NC(=O)[C@H](CC2CCCCC2)NC(=O)[C@H](CCN)NC1=O` [Compound 1459] ({CH2CO}-[Dap][4Pal]D[Phe(3-CF3)]V[Bip]E[Orn][dL][Dab][Cha]VTCA-NH2; thioether N-14), the IC50 came to 17.7 nM.

As for `CC(C)C[C@H]1NC(=O)[C@H](CCCN)NC(=O)[C@H](CCC(=O)O)NC(=O)[C@H](Cc2ccc(-c3ccccc3)cc2)NC(=O)[C@H](C(C)C)NC(=O)[C@H](Cc2cccc(C(F)(F)F)c2)NC(=O)[C@H](CC(=O)O)NC(=O)[C@H](Cc2ccc(OCC(=O)O)cc2)NC(=O)[C@H](Cc2ccncc2)NC(=O)CSC[C@@H](C(=O)N[C@@H](C)C(N)=O)NC(=O)[C@H]([C@@H](C)O)NC(=O)[C@H](C(C)C)NC(=O)[C@H](CC2CCCCC2)NC(=O)[C@H](CCN)NC1=O` [Compound 1460], the IC50 is 11.2 nM.

As to `CC(C)C[C@H]1NC(=O)[C@H](CCCN)NC(=O)[C@H](CCC(=O)O)NC(=O)[C@H](Cc2ccc(-c3ccccc3)cc2)NC(=O)[C@H](C(C)C)NC(=O)[C@H](Cc2cccc(C(F)(F)F)c2)NC(=O)[C@H](CC(=O)O)NC(=O)[C@H](Cc2ccc(C(=O)O)cc2)NC(=O)[C@H](Cc2ccc(OCC(=O)O)cc2)NC(=O)CSC[C@@H](C(=O)N[C@@H](C)C(N)=O)NC(=O)[C@H]([C@@H](C)O)NC(=O)[C@H](C(C)C)NC(=O)[C@H](CC2CCCCC2)NC(=O)[C@H](CCN)NC1=O` [Compound 1461], the IC50 was 13.6 nM.

In the case of `CC(C)C[C@H]1NC(=O)[C@H](CCCN)NC(=O)[C@H](CCC(=O)O)NC(=O)[C@H](Cc2ccc(-c3ccccc3)cc2)NC(=O)[C@H](C(C)C)NC(=O)[C@H](Cc2cccc(C(F)(F)F)c2)NC(=O)[C@H](CC(=O)O)NC(=O)[C@H](Cc2ccncc2)NC(=O)[C@H](Cc2ccc(OCC(=O)O)cc2)NC(=O)CSC[C@@H](C(=O)N[C@@H](C)C(N)=O)NC(=O)[C@H]([C@@H](C)O)NC(=O)[C@H](C(C)C)NC(=O)[C@H](CC2CCCCC2)NC(=O)[C@H](CCN)NC1=O` [Compound 1462] ({CH2CO}-Y(Carboxymethyl)[4Pal]D[Phe(3-CF3)]V[Bip]E[Orn][dL][Dab][Cha]VTCA-NH2; thioether N-14), the IC50 was found to be 16.8 nM.

For `CC(C)C[C@H]1NC(=O)[C@H](CCCN)NC(=O)[C@H](CCC(=O)O)NC(=O)[C@H](Cc2ccc(-c3ccccc3)cc2)NC(=O)[C@H](C(C)C)NC(=O)[C@H](Cc2cccc(C(F)(F)F)c2)NC(=O)[C@H](CC(=O)O)NC(=O)[C@H](Cc2ccncc2)NC(=O)[C@H](Cc2ccccc2)NC(=O)CSC[C@@H](C(=O)N[C@@H](C)C(N)=O)NC(=O)[C@H]([C@@H](C)O)NC(=O)[C@H](C(C)C)NC(=O)[C@H](CC2CCCCC2)NC(=O)[C@H](CCN)NC1=O` [Compound 1463] ({CH2CO}-F[4Pal]D[Phe(3-CF3)]V[Bip]E[Orn][dL][Dab][Cha]VTCA-NH2; thioether N-14), the IC50 was found to be 24.4 nM.

Take `CC(C)C[C@H]1NC(=O)[C@H](CCCN)NC(=O)[C@H](CCC(=O)O)NC(=O)[C@H](Cc2ccc(-c3ccccc3)cc2)NC(=O)[C@H](C(C)C)NC(=O)[C@H](Cc2cccc(C(F)(F)F)c2)NC(=O)[C@H](CC(=O)O)NC(=O)[C@H](Cc2ccc(O)cc2)NC(=O)[C@H](Cc2ccncc2)NC(=O)CSC[C@@H](C(=O)N[C@@H](C)C(N)=O)NC(=O)[C@H]([C@@H](C)O)NC(=O)[C@H](C(C)C)NC(=O)[C@H](CC2CCCCC2)NC(=O)[C@H](CCN)NC1=O` [Compound 1464]: the IC50 was found to be 25.8 nM.

Regarding `CC(C)C[C@H]1NC(=O)[C@H](CCCN)NC(=O)[C@H](CCC(=O)O)NC(=O)[C@H](Cc2ccc(-c3ccccc3)cc2)NC(=O)[C@H](C(C)C)NC(=O)[C@H](Cc2cccc(C(F)(F)F)c2)NC(=O)[C@H](CC(=O)O)NC(=O)[C@H](Cc2ccc(OCC(=O)O)cc2)NC(=O)[C@H](Cc2ccc(OCC(=O)O)cc2)NC(=O)CSC[C@@H](C(=O)N[C@@H](C)C(N)=O)NC(=O)[C@H]([C@@H](C)O)NC(=O)[C@H](C(C)C)NC(=O)[C@H](CC2CCCCC2)NC(=O)[C@H](CCN)NC1=O` [Compound 1465], the IC50 stood at 27.4 nM.

On to `COc1cccc(C[C@@H]2NC(=O)[C@H](CC(=O)O)NC(=O)[C@H](Cc3ccc(O)cc3)NC(=O)[C@H](CC(N)=O)NC(=O)CSC[C@@H](C(=O)N[C@@H](C)C(N)=O)NC(=O)[C@H]([C@@H](C)O)NC(=O)[C@H](C(C)C)NC(=O)[C@H](CC3CCCCC3)NC(=O)[C@H](CCN)NC(=O)[C@@H](CC(C)C)NC(=O)[C@H](CCCN)NC(=O)[C@H](CCC(=O)O)NC(=O)[C@H](Cc3ccc(-c4ccccc4)cc3)NC(=O)[C@H](C(C)C)NC2=O)c1` [Compound 1466] ({CH2CO}-NYD[Phe(3-OMe)]V[Bip]E[Orn][dL][Dab][Cha]VTCA-NH2; thioether N-14), for which the IC50 was determined as 16.3 nM.

As to `COc1cccc(C[C@@H]2NC(=O)[C@H](CC(=O)O)NC(=O)[C@H](Cc3ccc(OCC(=O)O)cc3)NC(=O)[C@H](CN)NC(=O)CSC[C@@H](C(=O)N[C@@H](C)C(N)=O)NC(=O)[C@H]([C@@H](C)O)NC(=O)[C@H](C(C)C)NC(=O)[C@H](CC3CCCCC3)NC(=O)[C@H](CCN)NC(=O)[C@@H](CC(C)C)NC(=O)[C@H](CCCN)NC(=O)[C@H](CCC(=O)O)NC(=O)[C@H](Cc3ccc(-c4ccccc4)cc3)NC(=O)[C@H](C(C)C)NC2=O)c1` [Compound 1467], the IC50 came to 112 nM.

For the origin of these results see patent US20250163104A1, “MACROCYCLIC IMMUNOMODULATORS” (priority 2021, published 2025).
